Results taken from PubChem BioAssay AID256 (DTP/NCI, 2004).
Several values for one entry are separate records, joined by “and”; a condition that tells them apart may be missing. Equal entries are not always repeated. Inconclusive results and toxic doses are left out. How the source made its calls: active means survival T/C of 150% or more; inactive means T/C below 125% in these data.

Tested on: CD2F1 mice, L1210 leukemia ip, survival T/C
Test: NCI In Vivo Anticancer Drug Screen. Data for tumor model L1210 Leukemia (intraperitoneal) in CD2F1 (CDF1) mice
Conditions: higher = longer survival
How it was run: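 In this screen, transplantable tumors were grown in mice given either the compound or its vehicle. Results were expressed as the treated measurement relative to the control measurement.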

[1] = endpoint: mean survival time, dose: 75.0 mg/kg/injection, schedule: Q01DX001 (ip), vehicle: saline
[2] = endpoint: mean survival time, dose: 100.0 mg/kg/injection, schedule: Q01DX001 (ip), vehicle: saline with Tween-80
[3] = endpoint: mean survival time, dose: 100.0 mg/kg/injection, schedule: Q01DX009 (ip), vehicle: saline with Tween-80
[4] = endpoint: mean survival time, dose: 200.0 mg/kg/injection, schedule: Q01DX001 (ip), vehicle: saline with Tween-80
[5] = endpoint: mean survival time, dose: 200.0 mg/kg/injection, schedule: Q01DX009 (ip), vehicle: saline with Tween-80
[6] = endpoint: mean survival time, dose: 400.0 mg/kg/injection, schedule: Q01DX001 (ip), vehicle: saline with Tween-80
[7] = endpoint: mean survival time, dose: 400.0 mg/kg/injection, schedule: Q01DX009 (ip), vehicle: saline with Tween-80
[8] = endpoint: mean survival time, dose: 50.0 mg/kg/injection, schedule: Q01DX009 (ip), vehicle: saline
[9] = endpoint: mean survival time, dose: 100.0 mg/kg/injection, schedule: Q04DX003 (ip), vehicle: saline with Tween-80
[10] = endpoint: mean survival time, dose: 200.0 mg/kg/injection, schedule: Q04DX003 (ip), vehicle: saline with Tween-80
[11] = endpoint: mean survival time, dose: 400.0 mg/kg/injection, schedule: Q04DX003 (ip), vehicle: saline with Tween-80
[12] = endpoint: mean survival time, dose: 100.0 mg/kg/injection, schedule: Q01DX001 (ip), vehicle: saline
[13] = endpoint: mean survival time, dose: 200.0 mg/kg/injection, schedule: Q01DX001 (ip), vehicle: saline
[14] = endpoint: mean survival time, dose: 400.0 mg/kg/injection, schedule: Q01DX001 (ip), vehicle: saline
[15] = endpoint: mean survival time, dose: 100.0 mg/kg/injection, schedule: Q04DX002 (ip), vehicle: saline with Tween-80
[16] = endpoint: mean survival time, dose: 200.0 mg/kg/injection, schedule: Q04DX002 (ip), vehicle: saline with Tween-80
[17] = endpoint: mean survival time, dose: 400.0 mg/kg/injection, schedule: Q04DX002 (ip), vehicle: saline with Tween-80
[18] = endpoint: mean survival time, dose: 50.0 mg/kg/injection, schedule: Q04DX002 (ip), vehicle: saline with Tween-80
[19] = endpoint: mean survival time, dose: 100.0 mg/kg/injection, schedule: Q01DX001 (ip), vehicle: Klucel (hydroxypropylcellulose) (HPC)
[20] = endpoint: mean survival time, dose: 200.0 mg/kg/injection, schedule: Q01DX001 (ip), vehicle: Klucel (hydroxypropylcellulose) (HPC)
[21] = endpoint: mean survival time, dose: 400.0 mg/kg/injection, schedule: Q01DX001 (ip), vehicle: Klucel (hydroxypropylcellulose) (HPC)
[22] = endpoint: mean survival time, dose: 50.0 mg/kg/injection, schedule: Q01DX009 (ip), vehicle: saline with Tween-80

Measured: T/C

CC(=O)C=C(C)[O][Tl]
inactive: [1] 102 % of control

C[n+]1c(/C=C\c2cccc([N+](=O)[O-])c2)ccc2ccccc21
inactive: [2] 106 % of control | [3] 87 % of control | [4] 95 % of control | [5] 91 % of control | [6] 107 % of control | [7] 95 % of control

Cc1c2c(O)c(O)c(O)cc2c[n+]2ccccc12
inactive: [8] 101 % of control

COc1ccccc1NC(=O)Nc1cccc(Cl)c1
inactive: [3] 95 % of control | [9] 94 % of control | [5] 93 % of control | [10] 97 % of control | [7] 88 % of control | [11] 86 % of control

CCN(CC)c1nc(CCc2ccc(N(C)C)cc2)c2[nH]cnc2n1
inactive: endpoint: mean survival time, dose: 3.13 mg/kg/injection, schedule: Q01DX005 (ip), vehicle: other 94 % of control | endpoint: mean survival time, dose: 6.25 mg/kg/injection, schedule: Q01DX005 (ip), vehicle: other 93 % of control | endpoint: mean survival time, dose: 12.5 mg/kg/injection, schedule: Q01DX005 (ip), vehicle: other 93 % of control | endpoint: mean survival time, dose: 25.0 mg/kg/injection, schedule: Q01DX005 (ip), vehicle: other 89 % of control | endpoint: mean survival time, dose: 50.0 mg/kg/injection, schedule: Q01DX005 (ip), vehicle: other 89 % of control

CCCCNC(=O)C1CC2c3c(Br)ccc4c3C(CC2N(C)C1)CN4C(C)=O (configuration not stated)
inactive: endpoint: mean survival time, dose: 50.0 mg/kg/injection, schedule: Q04DX003 (ip), vehicle: saline with Tween-80 86 % of control | [10] 91 % of control

O=c1[nH]c(=O)n(C2CCOC2)cc1Br (configuration not stated)
inactive: [12] 103 % of control | [13] 100 % of control | [14] 103 % of control

NCc1ccc(O)c(O)c1
inactive: [8] 115 % of control | endpoint: mean survival time, dose: 100.0 mg/kg/injection, schedule: Q01DX009 (ip), vehicle: saline 118 % of control and 124 % of control | endpoint: mean survival time, dose: 200.0 mg/kg/injection, schedule: Q01DX009 (ip), vehicle: saline 123 % of control and 124 % of control | endpoint: mean survival time, dose: 400.0 mg/kg/injection, schedule: Q01DX009 (ip), vehicle: saline 114 % of control | endpoint: mean survival time, dose: 800.0 mg/kg/injection, schedule: Q01DX009 (ip), vehicle: saline 118 % of control | endpoint: median survival time, dose: 28.13 mg/kg/injection, schedule: Q03HX024 (ip), vehicle: saline 111 % of control | endpoint: median survival time, dose: 56.25 mg/kg/injection, schedule: Q03HX024 (ip), vehicle: saline 110 % of control | endpoint: median survival time, dose: 300.0 mg/kg/injection, schedule: Q03HX024 (ip), vehicle: saline 110 % of control

Brc1ccc(-c2csc3cccc[n+]23)cc1
inactive: endpoint: mean survival time, dose: 5.0 mg/kg/injection, schedule: Q04DX003 (ip), vehicle: saline with Tween-80 93 % of control | endpoint: mean survival time, dose: 10.0 mg/kg/injection, schedule: Q04DX003 (ip), vehicle: saline with Tween-80 104 % of control | endpoint: mean survival time, dose: 20.0 mg/kg/injection, schedule: Q04DX003 (ip), vehicle: saline with Tween-80 93 % of control

O=[N+]([O-])c1ccc(COc2ccc(Cl)cc2)cc1
inactive: [9] 92 % of control | [10] 103 % of control | [11] 94 % of control

C/C(=C/Cc1c(O)c(C)c2c(c1O)C(=O)OC2)CCC(=O)NCCc1ccccc1
inactive: [15] 87 % of control | [16] 87 % of control | [17] 96 % of control

[Cl][Pt+2][Cl].[NH-]Cc1cccc(F)c1.[NH-]Cc1cccc(F)c1
inactive: endpoint: mean survival time, dose: 12.5 mg/kg/injection, schedule: Q04DX003 (ip), vehicle: distilled water + Tween-80 95 % of control | endpoint: mean survival time, dose: 25.0 mg/kg/injection, schedule: Q04DX003 (ip), vehicle: distilled water + Tween-80 95 % of control | endpoint: mean survival time, dose: 50.0 mg/kg/injection, schedule: Q04DX003 (ip), vehicle: distilled water + Tween-80 95 % of control | endpoint: mean survival time, dose: 100.0 mg/kg/injection, schedule: Q04DX003 (ip), vehicle: distilled water + Tween-80 100 % of control | endpoint: mean survival time, dose: 200.0 mg/kg/injection, schedule: Q04DX003 (ip), vehicle: distilled water + Tween-80 100 % of control

NS(=O)(=O)c1cc([N+](=O)[O-])ccc1Cl
inactive: [3] 91 % of control | [5] 98 % of control

O=C(COc1ccc(Cl)c(Cl)c1)NCc1cccc(NC(=O)c2ccc(S(=O)(=O)F)cc2)c1
inactive: [2] 87 % of control | [4] 86 % of control | [6] 89 % of control

CCCCCCCCCC(=O)NC(=S)Nc1ccc(C(=O)OCCCC)cc1
inactive: [2] 88 % of control | [3] 103 % of control | [15] 94 % of control and 103 % of control | [9] 90 % of control | [4] 86 % of control | [5] 92 % of control and 98 % of control | [16] 90 % of control and 100 % of control | [10] 93 % of control | [7] 89 % of control and 92 % of control | [17] 90 % of control and 91 % of control | [11] 93 % of control

O=c1c2cccc3cccc(c32)c2c3c(nn12)CCCC3
inactive: endpoint: mean survival time, dose: 12.5 mg/kg/injection, schedule: Q04DX002 (ip), vehicle: saline with Tween-80 102 % of control | endpoint: mean survival time, dose: 25.0 mg/kg/injection, schedule: Q04DX002 (ip), vehicle: saline with Tween-80 98 % of control | [18] 94 % of control

Cc1c(Cl)cccc1NC(=O)Oc1ccc(Cl)cc1Cl
inactive: [9] 95 % of control | [10] 97 % of control

O=C(OC(c1ccccc1)(C(F)(F)F)C(F)(F)F)c1ccccc1Sc1ccccc1
inactive: [9] 98 % of control | [10] 93 % of control | [11] 93 % of control

Brc1ccc(OCC(COc2ccc(Br)cc2)(COc2ccc(Br)cc2)COc2ccc(Br)cc2)cc1
inactive: [19] 100 % of control | [20] 103 % of control | [21] 91 % of control

Cc1nc(C(=O)O)c(C(=O)O)[nH]1
inactive: [3] 98 % of control | [9] 100 % of control | [5] 97 % of control | [10] 94 % of control

Oc1ccccc1C=NC1CCCCC1N=Cc1ccccc1O.[Ni] (configuration not stated)
inactive: [18] 89 % of control | [15] 97 % of control | [16] 97 % of control | [17] 93 % of control

FC(F)(F)Cc1ccccc1
inactive: [2] 103 % of control | [4] 108 % of control | [6] 105 % of control

O=C(O)C[Se]CC(=O)O
inactive: [12] 109 % of control | [13] 103 % of control

CC(=O)OCc1ccc2ccccc2c1
inactive: [3] 100 % of control | [5] 102 % of control | [7] 118 % of control

O=C(O)C(NC1CCCCC1)c1ccccc1 (configuration not stated)
inactive: [22] 95 % of control | [3] 103 % of control | [9] 92 % of control | [5] 92 % of control | [10] 93 % of control

CC(C)(C)OC(=O)NC(Cc1c[nH]c2ccccc12)C(=O)ON1C(=O)CCC1=O (configuration not stated)
inactive: [9] 95 % of control | [10] 95 % of control

CC(=O)Nc1ccc(/C=N/NC(=O)COc2ccccc2)cc1
inactive: [3] 97 % of control | [5] 94 % of control | [7] 94 % of control

CC(C)=C/C(C)=C(/C#N)C(=O)OC(C)C
inactive: [1] 97 % of control | endpoint: mean survival time, dose: 150.0 mg/kg/injection, schedule: Q01DX001 (ip), vehicle: saline 97 % of control

O=C1C(=O)c2ccccc2C(O)=C1CCCc1ccc(OCc2ccccc2)cc1
inactive: endpoint: mean survival time, dose: 100.0 mg/kg/injection, schedule: Q04DX003 (ip), vehicle: saline 86 % of control | endpoint: mean survival time, dose: 200.0 mg/kg/injection, schedule: Q04DX003 (ip), vehicle: saline 88 % of control

ClSc1c(Cl)c(Cl)c(Cl)c(Cl)c1Cl
inactive: [9] 95 % of control | [10] 101 % of control | [11] 95 % of control

CC(=O)n1c2ccccc2c2ccccc21
inactive: [22] 106 % of control | [3] 109 % of control | [5] 106 % of control

CS/C(N)=N\C(=O)N(C)C
inactive: [3] 98 % of control | [5] 110 % of control | [7] 103 % of control

CCOC(=O)c1c[nH]c2ccc([N+](=O)[O-])cc2c1=O
inactive: [19] 111 % of control | [3] 97 % of control | [9] 90 % of control | [20] 96 % of control | [5] 100 % of control | [10] 91 % of control | [21] 100 % of control | [7] 94 % of control | [11] 88 % of control

CCC(C)(CC(=O)OC)C(=O)OC (configuration not stated)
inactive: [12] 108 % of control | [13] 104 % of control | [14] 108 % of control

O=C1OC(=O)C2CC(Br)C(Br)CC12 (configuration not stated)
inactive: [3] 95 % of control | [5] 98 % of control | [7] 91 % of control
